Laboratory results: US9116157B2, “Ice-cleaved alpha-synuclein as a biomarker” (Brandeis University, priority 2010, dated 2015)

Assays:
ICE = target: T1, ICE (Homo sapiens, UniProt P29466); experiment: ICE digestion of α-synuclein in vitro, SDS-PAGE and western blot with anti-synuclein antibody; type: biochemical
T1 sequence (P29466 120-297 limits assumed): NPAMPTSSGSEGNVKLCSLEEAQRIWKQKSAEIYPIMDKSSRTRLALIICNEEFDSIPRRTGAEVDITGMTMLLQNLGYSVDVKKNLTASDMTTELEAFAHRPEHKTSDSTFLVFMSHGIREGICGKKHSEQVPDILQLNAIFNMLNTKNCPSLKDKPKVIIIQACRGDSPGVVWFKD
T1 sequence (P29466 317-404 limits assumed): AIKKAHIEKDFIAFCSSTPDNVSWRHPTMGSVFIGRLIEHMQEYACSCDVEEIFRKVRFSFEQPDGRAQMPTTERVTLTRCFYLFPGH
Description: Here, a 60 ul reaction mixture consisting of 21 μg of synuclein, 10 μg ICE in 100 mM HEPES, pH 7.4, 0.1% OG, 10% glycerol, 150 mM NaCl, with or without 20 μM inhibitor was incubated at 37° C. for 2 hours. 20 μl were withdrawn from the reaction for SDS-PAGE followed by western blotting with anti-synuclein antibody (FIG. 6).

[1] = Blood-brain barrier penetration in animals, preliminary tests; type: in vivo
Source text: The present example describes an approach for assessing is the ability of, inter alia, the two compounds referenced above (i.e., VX-765 and NCGC00185682) to cross the blood brain-barrier (BBB). […] In view of the fact that studies of VX-765 as a potential epilepsy therapeutic are currently underway at Vertex, it is hypothesized that either BBB penetration in humans is better or that the amount of compound in the CNS that is needed to achieve the desired effect being measured in the studies is small.

[2] = tested on: M17 cells carrying empty pcDNA3 vector; experiment: M17 cell viability in the presence of menadione (empty vector); type: cell-based, human; conditions: low concentrations; FIG. 8
[3] = tested on: M17 overexpressing α-synuclein; experiment: α-synuclein fragmentation in M17 cells, western blot with anti-synuclein antibody; type: cell-based, human; conditions: 12 μM and 14 μM in 1% DMSO; FIG. 9
Description: In this set of experiments, M17 overexpressing α-synuclein was grown in Optimem in presence or absence of menadione to confluence. Cells were then scraped and lysed by sonnication for SDS-PAGE followed by western blotting with anti-synuclein antibody.

[4] = tested on: M17 cells overexpressing α-synuclein; experiment: M17 cell viability in the presence of menadione (α-synuclein overexpression); type: cell-based, human; conditions: low concentrations; FIG. 8
Source text: (§1) Humans have 28 calpain and caspase isozymes—a large but not impossible number to test. RNAi was used to knock down each of these in turn in a neuronal cell culture model of PD. It is a neuroblastoma cell line (BE(2)-M17) carrying a wild-type α-synuclein overexpressing vector. BE(2)-M17 is a clone of the SK-N-BE(2) cell line that was established in November of 1972 from a bone marrow biopsy taken from a child with neuroblastoma. Synuclein on its own is not toxic to these cells, but it is toxic when combined with an oxidative stress agent such as rotenone or menadione. Greater than 90% reduction of mRNA levels for each of the 29 protease genes was routinely achieved, and greater than 50% reduction in protein levels (typically, about 70% reduction) was routinely achieved.

[5] = tested on: M17 cells overexpressing alpha-synuclein; experiment: LIVE/DEAD cell viability assay, rescue from alpha-synuclein-induced toxicity; type: cell-based, human; conditions: FIG. 10
Source text: as §1
A cell viability assay was performed using LIVE/DEAD (molecular probes) assay according to the manufacture instructions. As summarized in FIG. 10, both RNAi knockdown of caspase-1/ICE and treatment with the caspase-1/ICE inhibitor block synuclein fragment formation in nerve cells and should inhibit synuclein aggregation in neuronal cells derived from one or more mouse models of PD.

Compound	ICE-generated α-synuclein fragment below 17 kD (western blot) (ICE; 20 μM inhibitor, 10 μg ICE, 37° C., 2 hours)	block of caspase-1 cleavage of alpha-synuclein (ICE; dose-dependent, FIG. 6)	BBB penetration [1]	toxicity to M17 cells carrying empty pcDNA3 vector [2]	fragmentation of α-synuclein (smaller fragment below 17 kD) [3]	toxicity to M17 cells overexpressing α-synuclein [4]	rescue from alpha-synuclein-induced toxicity (cell viability) [5]
CC(C)(C)[C@H](NC(=O)c1ccc(N)c(Cl)c1)C(=O)N1CCC[C@H]1C(=O)N[C@H](C#N)CC(=O)O [NCGC00185682]	diminished	completely blocks	low				
CC1=CC(=O)c2ccccc2C1=O [menadione]				not toxic	induced fragmentation of α-synuclein	toxic	
CCO[C@@H]1OC(=O)C[C@@H]1NC(=O)[C@@H]1CCCN1C(=O)[C@@H](NC(=O)c1ccc(N)c(Cl)c1)C(C)(C)C [VX-765]			low				rescued
